Results as given in PubChem BioAssay (NCI).
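Results reflect a 48-hour exposure of cells in 96-well plates to compound at five concentrations. GI50 is the concentration that inhibits growth by half. TGI: concentration producing complete growth inhibition.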

Tests used:
Assay in all cases: NCI-60 cell line screen, 48 h
ACHN renal = system: ACHN renal
CCRF-CEM leukemia = system: CCRF-CEM leukemia
HCC-2998 colon = system: HCC-2998 colon
HCT-15 colon = system: HCT-15 colon
KM12 colon = system: KM12 colon
OVCAR-3 ovarian = system: OVCAR-3 ovarian
RXF 393 renal = system: RXF 393 renal
SR leukemia = system: SR leukemia
KM20L2 colon = system: KM20L2 colon
LXFL 529 NSCLC = system: LXFL 529 NSCLC

| Compound | GI50 (ACHN renal) [µM] | TGI (ACHN renal) [µM] | GI50 (CCRF-CEM leukemia) [µM] | TGI (CCRF-CEM leukemia) [µM] | GI50 (HCC-2998 colon) [µM] | TGI (HCC-2998 colon) [µM] | GI50 (HCT-15 colon) [µM] | TGI (HCT-15 colon) [µM] | GI50 (KM12 colon) [µM] | TGI (KM12 colon) [µM] | GI50 (OVCAR-3 ovarian) [µM] | TGI (OVCAR-3 ovarian) [µM] | GI50 (RXF 393 renal) [µM] | TGI (RXF 393 renal) [µM] | GI50 (SR leukemia) [µM] | TGI (SR leukemia) [µM] | TGI (KM20L2 colon) [µM] | TGI (LXFL 529 NSCLC) [µM] |
| --- | --- | --- | --- | --- | --- | --- | --- | --- | --- | --- | --- | --- | --- | --- | --- | --- | --- | --- |
| O=C1c2cccnc2C(=O)c2c1c(C(=O)NCCn1ccnc1)c1ccccn21 | 2.75 | 36 | 6.12 | > 100 | 2.23 | 9.82 | 3.31 | 15.1 | 2.96 | 19 | 2.28 | 7.43 | 3.88 | 15.7 | 2.2 | > 100 | – | – |
| CN(C)Cc1ccc(C(C)(C)C)cc1-c1cc(C(C)(C)C)ccc1CN(C)C | – | > 100 | – | > 100 | – | 30.2 | – | > 100 | – | > 100 | – | > 100 | – | > 100 | – | > 100 | – | – |
| Cc1cc(=O)n(-c2c(C)cccc2Cl)c(/C=C(\O)c2ccncc2)n1 | – | > 100 | – | > 100 | – | > 100 | – | > 100 | – | > 100 | – | > 100 | – | > 100 | – | – | > 100 | > 100 |
| Cc1ccc(-c2nc(N3CCNCC3)c3oc(-c4ccccc4)nc3n2)cc1 | 1.75 | 3.12 | 2.16 | 4.79 | > 100 | > 100 | 1.69 | 3.2 | 1.85 | 3.51 | 1.96 | 3.48 | 1.7 | 3.19 | 1.26 | 3.24 | – | – |
| COc1cc(/C=C/C(=O)/C=C/c2cc3ccc(Cl)cc3n(Cc3ccccc3)c2=O)ccc1O | 1.33 | 2.62 | 1.4 | > 100 | 1.98 | 3.48 | 1.24 | 4.01 | 1.7 | 3.59 | 0.71 | 2.43 | 1.8 | 3.34 | 0.457 | > 100 | – | – |
| COc1ccc(S(=O)(=O)N[C@H](C(=O)O)c2ccccc2)cc1 | – | > 100 | – | > 100 | – | > 100 | – | > 100 | – | > 100 | – | > 100 | – | > 100 | – | – | > 100 | > 100 |
| CCOC(=O)C(NO)C(Sc1ccccc1)c1ccc(OC)cc1 (stereo not given) | – | > 100 | – | – | – | > 100 | – | > 100 | – | > 100 | – | > 100 | – | 52.3 | – | > 100 | > 100 | > 100 |
| CCN(CC)CCC(CNc1ccnc2cc(Cl)ccc12)c1ccccc1 (stereo not given) | 3.91 | 14.7 | 4.02 | 36.5 | 2.09 | 6.6 | 3.51 | 20.8 | 7.29 | 75.1 | 14.9 | > 100 | 2.3 | 5.65 | 2.23 | 8.48 | – | – |
| NC(Cc1c[nH]c2ccc(F)cc12)C(=O)O (stereo not given) | 738 | > 2500 | 1090 | > 2500 | 1810 | > 2500 | 1180 | > 2500 | 760 | > 2500 | 724 | > 2500 | 887 | > 2500 | 1200 | > 2500 | – | – |
